Source: US6433019B1, “Neurotrophic factor secretion promoters” (Sumitomo Pharmaceuticals Company, Limited, priority 1998, dated 2002)
Read-outs that look alike come from different tables or passages of the source.

How the values were obtained:
[1] = cited from earlier work; for serious side effects: oral administration to human, estimated
BDNF-trkB complex = assay: BDNF release: sandwich immunoassay of BDNF-trkB complex on the cell surface; assay type: cell-based, rat; details: FIG. 3B
From the text: The effects of an NO donor on the BDNF release were studied in order to clarify the inhibitory effects of SNAP at a high dose on the BDNF protein accumulation. First, the measurement of BDNF concentration in the culture supernatant was tried, but the concentration of BDNF therein was below a detection limitation value of an ordinary EIA, which was considered that the released BDNF immediately combines with the cell surface, even with the trkB receptor. Then, using an anti-pan-trk receptor antibody, a sandwich immunoassay was tried in order to determine the BDNF combined with a trk B receptor on the cell surface.

BDNF protein = BDNF protein in the cells by EIA; assay type: cell-based, rat; details: for BDNF protein in the cells: FIG. 2C
Protocol: (§1) The following experiment was done in order to confirm the NO production by neural cells, and to clarify which isozyme of three nitric oxide synthase isozymes (References el and e2) (neuronal type; nNOS, endothelial type; eNOS and inducible type; iNOS) is involved with the NO production, The cultured neural cells were prepared by using the neural cells from the cerebral neocortex of rat embryo (E18), and culturing thereof in a serum free medium for 7 days (Reference e3). The supernatant of the culture medium was collected, and the concentration of nitrite was determined, which was used as an index for the total amount of NO production (FIG. 1A). The concentration of nitrite was determined by Griess' method (Reference e4). During the cultivation, the accumulation of nitrite in the supernatant was increased. The expression of NOS in the cultured cells was detected by Western blotting (FIG. 1B). The protein extracted from the cultured cells being electrophoresed on a nitrocellulose membrane was detected by labeling it with 3 anti-NOS antibodies (Transduction Lab., 1/500 to 1000 dilution), treating with peroxidase-labeled anti-IgG antibody, and visualizing by chemical luminescence reaction (ECL kit by Amersham Pharmacia Biotech). In the cultured neural cell sample, the nNOS-like immunoreaction was detected, but eNOS immunoreaction was hardly detected, and further INOS immunoreaction was not detected at all. The product by nNOS immunoreaction as mentioned above has a molecular weight of about 160 kD, which is coincident with that of nNOS as reported in literatures. […]
(§2) From the finding that the inhibition of NO synthesis in the cultured brain neural cells increased the expression of BDNF gene, it was clarified that endogenous NO affect the regulation of BDNF gene expression. […] SNAP was added to the culture system at various concentrations, and 3 hours and 5 hours thereafter, the BDNF MRNA was determined by quantitative RT-PCR, and the BDNF protein in the cells was determined by EIA, in the same manner as in Example 2.

[2] = compared with other NO donors (Reference e5); cited from earlier work
BDNF mRNA = BDNF mRNA by quantitative RT-PCR in cultured brain neural cells; assay type: cell-based, rat
Protocol: as §1, §2

[3] = tested on: cultured brain neural cells; assay: Growth of cultured neural cells (cytotoxicity); assay type: cell-based, rat; details: high dose (1000 μM)
[4] = tested on: cultured neural cells from the cerebral neocortex of rat embryo (E18); assay: NO production (nitrite, Griess' method) in the cultured neural cells; assay type: cell-based; details: 3 hours and 5 hours after addition, FIG. 2A
Protocol: as §1, with “During the cultivation, the accumulation of nitrite in the supernatant was increased.” left out, “all.” for “all. The product by nNOS immunoreaction as mentioned above has a molecular weight of about 160 kD, which is coincident with that of nNOS as reported in literatures.”

[5] = rats, cited from earlier work

O=[N+]([O-])OCC(CO[N+](=O)[O-])O[N+](=O)[O-] [NTG, nitroglycerin]
serious side effects ([1]; dose up to several mg per day): does not show serious side effects

N[C@@H](CCC(=O)O)C(=O)O [glutamic acid]
BDNF secretion promoting activity (BDNF-trkB complex): did not show a distinguished BDNF secretion promoting activity
BDNF synthesis promoting activity (BDNF protein): potent BDNF synthesis promoting activity

O=[N+]([O-])O[C@H]1CO[C@H]2[C@@H]1OC[C@H]2O[N+](=O)[O-] [ISDN, isosorbide dinitrate]
serious side effects ([1]; dose up to dozens mg per day): does not show serious side effects

CC(=O)NC(C(=O)O)C(C)(C)SN=O (racemic) [SNAP, S-nitroso-N-acetyl-DL-penicillamine]
cytotoxicity [2]: weaker than that of other NO donors
amount of the BDNF-trkB complex (BDNF-trkB complex; dose of 100 μM or more): significantly increased
expression of BDNF gene (BDNF mRNA; lower dose (30 to 300 μM), FIG. 2B): increased dose-dependently
expression of BDNF mRNA (BDNF mRNA; quite high dose (1000 μM), FIG. 2B): inhibited
growth of cells [3]: no change in the growth of cells
NO release from the NO donor (nitrite) [4]: NO was released from the NO donor
BDNF protein in the cells (BDNF protein; higher dose than 30 μM): dose-dependent decrease
BDNF protein in the cells (BDNF protein; only at 30 μM): increased

O=[N+]([O-])O[C@@H]1CO[C@H]2[C@@H]1OC[C@@H]2O [ISMN, isosorbide mononitrate]
LD50 ([5]; i.v.): 40 mg/kg
LD50 ([5]; p.o.): 1050 to 1550 mg/kg

N=C(N)NCCC[C@H](N)C(=O)O [arginine]
toxicity ([1]; up to 20 g per day of arginine glutamate by intravenous drip): quite low

COCC(/C(C)=C/C(=N/O)C(N)=O)[N+](=O)[O-] (stereo not shown) [NOR1]
expression of BDNF gene (BDNF mRNA; dose not given): exhibited the same promoting activity
